Results taken from US20260232767A1, “INTERLEUKIN-23 RECEPTOR ANTAGONIST PEPTIDES FOR USE IN THE TREATMENT OF PSORIASIS” (Janssen Pharmaceutica NV, priority 2023, published 2026).

Test system: subjects with moderate-to-severe plaque psoriasis
Test: Suicidal ideation or behavior (Columbia-Suicide Severity Rating Scale)
[1] = Combined (all regimens), Week 16-56
[2] = Placebo → 100 mg QD, Week 16-56
[3] = Placebo → 100 mg QD, through Week 56

Protocol: Adverse events were reported and followed by the investigator. Any clinically relevant changes occurring during the study were recorded. Any clinically significant abnormalities persisting at the end of the study/early withdrawal were followed by the investigator until resolution or until a clinically stable condition was reached if possible. The evaluations of safety and tolerability include: physical examinations, vital signs, electrocardiograms, clinical safety laboratory assessments, review of concomitant medication, pregnancy testing, suicidal ideation evaluation via the Columbia—Suicide Severity Rating Scale, and tuberculosis evaluation.

CC(=O)NCCCC[C@@H]1NC(=O)[C@H](Cc2c[nH]c3c(C)cccc23)NC(=O)[C@H]([C@@H](C)O)NC(=O)[C@H](CC(N)=O)NC(=O)[C@@H](NC(C)=O)C(C)(C)SSC(C)(C)[C@@H](C(=O)N[C@@H](Cc2ccc(OCCN)cc2)C(=O)N[C@@H](Cc2ccc3ccccc3c2)C(=O)NC2(C(=O)N[C@@H](CCC(=O)O)C(=O)N[C@@H](CC(N)=O)C(=O)N[C@@H](Cc3cccnc3)C(=O)N(C)CC(N)=O)CCOCC2)NC1=O [IL-23 receptor antagonist peptide, Ac-[Pen]*-N-T-[W(7-Me)]-[Lys(Ac)]-[Pen]*-Phe[4-(2-aminoethoxy)]-[2-Nal]-[THP]-E-N-[3-Pal]-Sarc-NH2 (*[Pen]-[Pen]* formdisulfidebond)]
0: Subjects with 1 - Wish to be dead (25 mg BID, Week 16-56) | Subjects with 2 - Non-specific active suicidal thoughts (25 mg BID, Week 16-56) | Subjects with 3 - Active suicidal ideation with any methods (not plan) without intent to act (25 mg BID, Week 16-56) | Subjects with 4 - Active suicidal ideation with some intent to act, without specific plan (25 mg BID, Week 16-56) | Subjects with 5 - Active suicidal ideation with specific plan and intent (25 mg BID, Week 16-56) | Subjects with 6 - Preparatory acts or behavior (25 mg BID, Week 16-56) | Subjects with 7 - Aborted attempt (25 mg BID, Week 16-56) | Subjects with 8 - Interrupted attempt (25 mg BID, Week 16-56) | Subjects with 9 - Non-fatal suicide attempt (25 mg BID, Week 16-56) | Subjects with 10 - Completed suicide (25 mg BID, Week 16-56) | Subjects with suicidal behavior (25 mg BID, Week 16-56) | Subjects with suicidal ideation (25 mg BID, Week 16-56) | Subjects with suicidal ideation or behavior (25 mg BID, Week 16-56) | Subjects with 1 - Wish to be dead (25 mg BID, through Week 56) | Subjects with 2 - Non-specific active suicidal thoughts (25 mg BID, through Week 56) | Subjects with 3 - Active suicidal ideation with any methods (not plan) without intent to act (25 mg BID, through Week 56) | Subjects with 4 - Active suicidal ideation with some intent to act, without specific plan (25 mg BID, through Week 56) | Subjects with 5 - Active suicidal ideation with specific plan and intent (25 mg BID, through Week 56) | Subjects with 6 - Preparatory acts or behavior (25 mg BID, through Week 56) | Subjects with 7 - Aborted attempt (25 mg BID, through Week 56) | Subjects with 8 - Interrupted attempt (25 mg BID, through Week 56) | Subjects with 9 - Non-fatal suicide attempt (25 mg BID, through Week 56) | Subjects with 10 - Completed suicide (25 mg BID, through Week 56) | Subjects with suicidal behavior (25 mg BID, through Week 56) | Subjects with suicidal ideation (25 mg BID, through Week 56) | Subjects with suicidal ideation or behavior (25 mg BID, through Week 56) | Subjects with 1 - Wish to be dead (25 mg QD, through Week 56) | Subjects with 2 - Non-specific active suicidal thoughts (25 mg QD, through Week 56) | Subjects with 3 - Active suicidal ideation with any methods (not plan) without intent to act (25 mg QD, through Week 56) | Subjects with 4 - Active suicidal ideation with some intent to act, without specific plan (25 mg QD, through Week 56) | Subjects with 5 - Active suicidal ideation with specific plan and intent (25 mg QD, through Week 56) | Subjects with 6 - Preparatory acts or behavior (25 mg QD, through Week 56) | Subjects with 7 - Aborted attempt (25 mg QD, through Week 56) | Subjects with 8 - Interrupted attempt (25 mg QD, through Week 56) | Subjects with 9 - Non-fatal suicide attempt (25 mg QD, through Week 56) | Subjects with 10 - Completed suicide (25 mg QD, through Week 56) | Subjects with suicidal behavior (25 mg QD, through Week 56) | Subjects with suicidal ideation (25 mg QD, through Week 56) | Subjects with suicidal ideation or behavior (25 mg QD, through Week 56) | Subjects with 1 - Wish to be dead (25 mg QD, Week 16-56) | Subjects with 2 - Non-specific active suicidal thoughts (25 mg QD, Week 16-56) | Subjects with 3 - Active suicidal ideation with any methods (not plan) without intent to act (25 mg QD, Week 16-56) | Subjects with 4 - Active suicidal ideation with some intent to act, without specific plan (25 mg QD, Week 16-56) | Subjects with 5 - Active suicidal ideation with specific plan and intent (25 mg QD, Week 16-56) | Subjects with 6 - Preparatory acts or behavior (25 mg QD, Week 16-56) | Subjects with 7 - Aborted attempt (25 mg QD, Week 16-56) | Subjects with 8 - Interrupted attempt (25 mg QD, Week 16-56) | Subjects with 9 - Non-fatal suicide attempt (25 mg QD, Week 16-56) | Subjects with 10 - Completed suicide (25 mg QD, Week 16-56) | Subjects with suicidal behavior (25 mg QD, Week 16-56) | Subjects with suicidal ideation (25 mg QD, Week 16-56) | Subjects with suicidal ideation or behavior (25 mg QD, Week 16-56) | Subjects with 1 - Wish to be dead (50 mg QD, Week 16-56) | Subjects with 2 - Non-specific active suicidal thoughts (50 mg QD, Week 16-56) | Subjects with 3 - Active suicidal ideation with any methods (not plan) without intent to act (50 mg QD, Week 16-56) | Subjects with 4 - Active suicidal ideation with some intent to act, without specific plan (50 mg QD, Week 16-56) | Subjects with 5 - Active suicidal ideation with specific plan and intent (50 mg QD, Week 16-56) | Subjects with 6 - Preparatory acts or behavior (50 mg QD, Week 16-56) | Subjects with 7 - Aborted attempt (50 mg QD, Week 16-56) | Subjects with 8 - Interrupted attempt (50 mg QD, Week 16-56) | Subjects with 9 - Non-fatal suicide attempt (50 mg QD, Week 16-56) | Subjects with 10 - Completed suicide (50 mg QD, Week 16-56) | Subjects with suicidal behavior (50 mg QD, Week 16-56) | Subjects with suicidal ideation (50 mg QD, Week 16-56) | Subjects with suicidal ideation or behavior (50 mg QD, Week 16-56) | Subjects with 1 - Wish to be dead (50 mg QD, through Week 56) | Subjects with 2 - Non-specific active suicidal thoughts (50 mg QD, through Week 56) | Subjects with 3 - Active suicidal ideation with any methods (not plan) without intent to act (50 mg QD, through Week 56) | Subjects with 4 - Active suicidal ideation with some intent to act, without specific plan (50 mg QD, through Week 56) | Subjects with 5 - Active suicidal ideation with specific plan and intent (50 mg QD, through Week 56) | Subjects with 6 - Preparatory acts or behavior (50 mg QD, through Week 56) | Subjects with 7 - Aborted attempt (50 mg QD, through Week 56) | Subjects with 8 - Interrupted attempt (50 mg QD, through Week 56) | Subjects with 9 - Non-fatal suicide attempt (50 mg QD, through Week 56) | Subjects with 10 - Completed suicide (50 mg QD, through Week 56) | Subjects with suicidal behavior (50 mg QD, through Week 56) | Subjects with suicidal ideation (50 mg QD, through Week 56) | Subjects with suicidal ideation or behavior (50 mg QD, through Week 56) | Subjects with 1 - Wish to be dead (100 mg BID, Week 16-56) | Subjects with 2 - Non-specific active suicidal thoughts (100 mg BID, Week 16-56) | Subjects with 3 - Active suicidal ideation with any methods (not plan) without intent to act (100 mg BID, Week 16-56) | Subjects with 4 - Active suicidal ideation with some intent to act, without specific plan (100 mg BID, Week 16-56) | Subjects with 5 - Active suicidal ideation with specific plan and intent (100 mg BID, Week 16-56) | Subjects with 6 - Preparatory acts or behavior (100 mg BID, Week 16-56) | Subjects with 7 - Aborted attempt (100 mg BID, Week 16-56) | Subjects with 8 - Interrupted attempt (100 mg BID, Week 16-56) | Subjects with 9 - Non-fatal suicide attempt (100 mg BID, Week 16-56) | Subjects with 10 - Completed suicide (100 mg BID, Week 16-56) | Subjects with suicidal behavior (100 mg BID, Week 16-56) | Subjects with suicidal ideation (100 mg BID, Week 16-56) | Subjects with suicidal ideation or behavior (100 mg BID, Week 16-56) | Subjects with 1 - Wish to be dead (100 mg BID, through Week 56) | Subjects with 2 - Non-specific active suicidal thoughts (100 mg BID, through Week 56) | Subjects with 3 - Active suicidal ideation with any methods (not plan) without intent to act (100 mg BID, through Week 56) | Subjects with 4 - Active suicidal ideation with some intent to act, without specific plan (100 mg BID, through Week 56) | Subjects with 5 - Active suicidal ideation with specific plan and intent (100 mg BID, through Week 56) | Subjects with 6 - Preparatory acts or behavior (100 mg BID, through Week 56) | Subjects with 7 - Aborted attempt (100 mg BID, through Week 56) | Subjects with 8 - Interrupted attempt (100 mg BID, through Week 56) | Subjects with 9 - Non-fatal suicide attempt (100 mg BID, through Week 56) | Subjects with 10 - Completed suicide (100 mg BID, through Week 56) | Subjects with suicidal behavior (100 mg BID, through Week 56) | Subjects with suicidal ideation (100 mg BID, through Week 56) | Subjects with suicidal ideation or behavior (100 mg BID, through Week 56) | Subjects with 1 - Wish to be dead (100 mg QD, Week 16-56) | Subjects with 2 - Non-specific active suicidal thoughts (100 mg QD, Week 16-56) | Subjects with 3 - Active suicidal ideation with any methods (not plan) without intent to act (100 mg QD, Week 16-56) | Subjects with 4 - Active suicidal ideation with some intent to act, without specific plan (100 mg QD, Week 16-56) | Subjects with 5 - Active suicidal ideation with specific plan and intent (100 mg QD, Week 16-56) | Subjects with 6 - Preparatory acts or behavior (100 mg QD, Week 16-56) | Subjects with 7 - Aborted attempt (100 mg QD, Week 16-56) | Subjects with 8 - Interrupted attempt (100 mg QD, Week 16-56) | Subjects with 9 - Non-fatal suicide attempt (100 mg QD, Week 16-56) | Subjects with 10 - Completed suicide (100 mg QD, Week 16-56) | Subjects with suicidal behavior (100 mg QD, Week 16-56) | Subjects with suicidal ideation (100 mg QD, Week 16-56) | Subjects with 1 - Wish to be dead (100 mg QD, through Week 56) | Subjects with 2 - Non-specific active suicidal thoughts (100 mg QD, through Week 56) | Subjects with 3 - Active suicidal ideation with any methods (not plan) without intent to act (100 mg QD, through Week 56) | Subjects with 4 - Active suicidal ideation with some intent to act, without specific plan (100 mg QD, through Week 56) | Subjects with 5 - Active suicidal ideation with specific plan and intent (100 mg QD, through Week 56) | Subjects with 6 - Preparatory acts or behavior (100 mg QD, through Week 56) | Subjects with 7 - Aborted attempt (100 mg QD, through Week 56) | Subjects with 8 - Interrupted attempt (100 mg QD, through Week 56) | Subjects with 10 - Completed suicide (100 mg QD, through Week 56) | Subjects with suicidal ideation (100 mg QD, through Week 56) | Subjects with 1 - Wish to be dead [1] | Subjects with 2 - Non-specific active suicidal thoughts [1] | Subjects with 3 - Active suicidal ideation with any methods (not plan) without intent to act [1] | Subjects with 4 - Active suicidal ideation with some intent to act, without specific plan [1] | Subjects with 5 - Active suicidal ideation with specific plan and intent [1] | Subjects with 6 - Preparatory acts or behavior [1] | Subjects with 7 - Aborted attempt [1] | Subjects with 8 - Interrupted attempt [1] | Subjects with 9 - Non-fatal suicide attempt [1] | Subjects with 10 - Completed suicide [1] | Subjects with suicidal behavior [1] | Subjects with suicidal ideation [1] | Subjects with 1 - Wish to be dead (Combined, through Week 56) | Subjects with 2 - Non-specific active suicidal thoughts (Combined, through Week 56) | Subjects with 3 - Active suicidal ideation with any methods (not plan) without intent to act (Combined, through Week 56) | Subjects with 4 - Active suicidal ideation with some intent to act, without specific plan (Combined, through Week 56) | Subjects with 5 - Active suicidal ideation with specific plan and intent (Combined, through Week 56) | Subjects with 6 - Preparatory acts or behavior (Combined, through Week 56) | Subjects with 7 - Aborted attempt (Combined, through Week 56) | Subjects with 8 - Interrupted attempt (Combined, through Week 56) | Subjects with 10 - Completed suicide (Combined, through Week 56) | Subjects with suicidal ideation (Combined, through Week 56) | Subjects with 1 - Wish to be dead [2] | Subjects with 2 - Non-specific active suicidal thoughts [2] | Subjects with 3 - Active suicidal ideation with any methods (not plan) without intent to act [2] | Subjects with 4 - Active suicidal ideation with some intent to act, without specific plan [2] | Subjects with 5 - Active suicidal ideation with specific plan and intent [2] | Subjects with 6 - Preparatory acts or behavior [2] | Subjects with 7 - Aborted attempt [2] | Subjects with 8 - Interrupted attempt [2] | Subjects with 9 - Non-fatal suicide attempt [2] | Subjects with 10 - Completed suicide [2] | Subjects with suicidal behavior [2] | Subjects with suicidal ideation [2] | Subjects with suicidal ideation or behavior [2] | Subjects with 1 - Wish to be dead [3] | Subjects with 2 - Non-specific active suicidal thoughts [3] | Subjects with 3 - Active suicidal ideation with any methods (not plan) without intent to act [3] | Subjects with 4 - Active suicidal ideation with some intent to act, without specific plan [3] | Subjects with 5 - Active suicidal ideation with specific plan and intent [3] | Subjects with 6 - Preparatory acts or behavior [3] | Subjects with 7 - Aborted attempt [3] | Subjects with 8 - Interrupted attempt [3] | Subjects with 9 - Non-fatal suicide attempt [3] | Subjects with 10 - Completed suicide [3] | Subjects with suicidal behavior [3] | Subjects with suicidal ideation [3] | Subjects with suicidal ideation or behavior [3]
